Patent EP0552417B1, “Cyclic peptides and use thereof” (priority 1991, dated 1993)
Like-named read-outs stand apart in the source and are kept apart here.

Details: amide bond, 18-membered ring, DMF, 4 steps

Substance: cyclo[-D-Asp-Pro-Asp-D-Leu-Leu-D-Trp-]
- ring closure, yield after HPLC (HONB ester (HONB/DCC preactivation)/TEA, 5.1 mM): 47.4%

Substance: cyclo[-D-Asp-Trp-Asp-D-tLeu-Leu-D-Trp-]
- ring closure, yield after HPLC (HONB/DCC (preactivation), HCl/dioxane, TEA, 5.0 mM): 42.8%

Substance: cyclo[-D-Asp-Asn(CH2CH2-Ind)-Asp-D-Thg(2)-Leu-D-Trp-]
- ring closure, yield after HPLC (HONB/DCC preactivation, HCl, TEA, 5.0 mM): 9.5%

Substance: cyclo[-D-Asp-Ala-Asp-D-Leu-Leu-D-Trp-]
- ring closure, yield after HPLC (HONB/DCC preactivation, TEA, 5.0 mM): 18.2%

Substance: cyclo[-D-Asp-Hyp(Bzl)-Asp-D-Thg(2)-Leu-D-Trp-]
- ring closure, yield after HPLC (HONB/DCC (preformed ONB ester), TEA, 5.0 mM): 5.7%
